Measurements as given in patent publication US11535593B2, “3-phosphoglycerate dehydrogenase inhibitors and uses thereof” (Raze Therapeutics, Inc., priority 2016, dated 2022).

Columns and labels:
[1] = biological target: T1, Full length (FL) 3-Phosphoglycerate Dehydrogenase (PHGDH) (Homo sapiens, UniProt O43175); assay: Full length (FL) PHGDH Diaphorase coupled assay (20 uM NAD); type: biochemical; conditions: 10 nM PHGDH, 30° C., 60 minutes, read-out: FL Diaphorase 20 μM NAD (PHGDH activity inhibition, IC50)
T1 construct: Full length (FL) 3-Phosphoglycerate Dehydrogenase (PHGDH) Diaphorase coupled assay (500 uM NAD)
T1 sequence (O43175 1-533): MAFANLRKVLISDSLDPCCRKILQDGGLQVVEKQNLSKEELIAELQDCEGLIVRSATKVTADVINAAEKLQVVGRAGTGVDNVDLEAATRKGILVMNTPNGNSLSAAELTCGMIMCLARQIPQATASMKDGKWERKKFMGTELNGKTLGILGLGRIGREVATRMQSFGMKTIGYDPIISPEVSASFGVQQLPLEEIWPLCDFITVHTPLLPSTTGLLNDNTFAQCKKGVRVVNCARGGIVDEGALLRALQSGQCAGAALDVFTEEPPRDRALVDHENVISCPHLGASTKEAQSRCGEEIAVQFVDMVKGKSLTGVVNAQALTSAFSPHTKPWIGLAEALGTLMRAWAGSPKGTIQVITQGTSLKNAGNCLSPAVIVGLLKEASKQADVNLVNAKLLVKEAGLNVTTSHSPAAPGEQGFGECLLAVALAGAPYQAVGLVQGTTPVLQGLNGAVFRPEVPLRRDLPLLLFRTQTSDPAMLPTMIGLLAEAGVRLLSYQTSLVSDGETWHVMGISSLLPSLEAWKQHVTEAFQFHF
Experimental: Example 57: Full Length (FL) 3-Phosphoglycerate Dehydrogenase (PHGDH) Diaphorase Coupled Assay (20 uM NAD)
Serial dilution of compounds were incubated in a volume of 20 μl in 384 well plates with the assay mixture containing 10 nM PHGDH, 500 nM PSAT1, 500 nM PSPH, 20 μM NAD^+, 80 uM 3-phosphoglycerate, 1 mM glutamate, 57 uM Resazurin and 0.2 mg/ml Diaphorase in assay buffer containing 50 mM Trisethanoloamine (TEA) pH8.0, 10 mM MgCl2, 0.01% Tween-20 and 0.05% Bovine Serum Albumin (BSA). The plate was then incubated at 30° C. for 60 minutes and resorufin fluorescence was measured at emission wavelength 598 nm following excitation at 525 nm. The positive control consisted of the complete reaction mixture with 4% DMSO and was set to 0% inhibition. […] Percent inhibition with the compounds was then calculated by normalizing the fluorescence observed at a given compound concentration to the positive and negative controls.

[2] = biological target: T1, Full length (FL) 3-Phosphoglycerate Dehydrogenase (PHGDH); assay: Full length (FL) PHGDH Diaphorase coupled assay (500 uM NAD); type: biochemical; conditions: 5 nM PHGDH, 30° C., 60 minutes
Experimental: Full length (FL) 3-Phosphoglycerate Dehydrogenase (PHGDH) Diaphorase coupled assay (500 uM NAD)
PHGDH activity was determined by detecting the NADH produced during the reaction. Diaphorase was used to catalyze the oxidation of NADH with the concomitant reduction of resazurin to the fluorescent product resorufin. Resorufin fluorescence quantitatively reflected the production of NADH by the PHGDH reaction. To drive the forward reaction, two enzymes in the serine synthesis pathway subsequent to PHGDH, Phosphoserine aminotransferase (PSAT1) and phosphoserine phosphatase (PSPH) were also added to the reaction.

IC50 [1] | IC50 [2] | Structure (SMILES)
1000 to 5000 nM | – | CC(=O)NS(=O)(=O)NCCC(NC(=O)c1cc2c(Cl)c(Cl)ccc2n1C)c1ccccc1 (racemic) [Compound I-50, (±)-N-[3-(acetylsulfamoylamino)-1-phenyl-propyl]-4,5-dichloro-1-methyl-indole-2-carboxamide]
5000 to 10000 nM | – | CC(=O)NS(=O)(=O)N(C)CCCNC(=O)c1cc2c(Cl)c(Cl)ccc2n1C [Compound I-51, N-[3-[acetylsulfamoyl(methyl)amino]propyl]-4,5-dichloro-1-methyl-indole-2-carboxamide]
1000 to 5000 nM | – | CC(=O)NS(=O)(=O)NCCCNC(=O)c1cc2c(Cl)c(Cl)ccc2n1C [Compound I-52, N-[3-(acetylsulfamoylamino)propyl]-4,5-dichloro-1-methyl-indole-2-carboxamide]
> 10000 nM | – | Cn1c(C(=O)NC(C)(C)CC(N)=O)cc2c(Cl)c(Cl)ccc21 [Compound I-53, N-(3-amino-1,1-dimethyl-3-oxo-propyl)-4,5-dichloro-1-methyl-indole-2-carboxamide]

More lines, now with the values behind:

Structure (SMILES) | IC50 [1] | IC50 [2]
CC(=O)NS(=O)(=O)N(C)CCC(NC(=O)c1cc2c(Cl)c(Cl)ccc2n1C)c1ccc(C(=O)O)cc1 (racemic) [Compound I-45, (±)-4-[3-[Acetylsulfamoyl(methyl)amino]-1-[(4,5-dichloro-1-methyl-indole-2-carbonyl)-amino]propyl]benzoic Acid] | 10 to 1000 nM | –
Cn1c(C(=O)NC(CN)c2ccc(C(=O)O)cc2)cc2c(Cl)c(Cl)ccc21 (racemic) [Compound I-46, (±)-4-(2-Amino-1-(4,5-dichloro-1-methyl-1H-indole-2-carboxamido)ethyl) benzoic Acid] | 10 to 1000 nM | –
CC(=O)NS(=O)(=O)NCCC(NC(=O)c1cc2c(Cl)c(Cl)ccc2n1C)c1cccc(CO)c1 (racemic) [Compound I-48, (±)-N-[3-(acetylsulfamoylamino)-1-[3-(hydroxymethyl)phenyl]propyl]-4,5-dichloro-1-methyl-indole-2-carboxamide] | 1000 to 5000 nM | –
CC(=O)NS(=O)(=O)NCCC(NC(=O)c1cc2c(Cl)c(Cl)ccc2n1C)c1cccc(C(=O)O)c1 (racemic) [Compound I-49, (±)-3-[3-(Acetylsulfamoylamino)-1-[(4,5-dichloro-1-methyl-indole-2-carbonyl)amino]propyl]benzoic Acid] | 10 to 1000 nM | –
Cn1c(C(=O)N[C@H](CO)c2ccc(C(=O)O)cc2)cc2c(Cl)c(Cl)ccc21 [Compound I-43, 4-[(1S)-1-[(4,5-dichloro-1-methyl-1H-indol-2-yl)formamido]-2-hydroxyethyl]benzoic acid] | – | 10 to 1000 nM
CC(NC(=O)c1cc2c(Cl)c(Cl)ccc2n1C)c1ccc(C(=O)O)cc1 (centres unmarked) [Compound I-44] | – | 10 to 1000 nM
CC(=O)NS(=O)(=O)NCCC(NC(=O)c1cc2c(Cl)c(Cl)ccc2n1C)c1ccc(C(=O)O)cc1 (centres unmarked) [Compound I-47, 4-[3-(Acetylsulfamoylamino)-1-[(4,5-dichloro-1-methyl-indole-2-carbonyl)amino]propyl]benzoic Acid] | 10 to 1000 nM | –
